Reference: paper PMC6133161, “Thiazoles with cyclopropyl fragment as antifungal, anticonvulsant, and anti-Toxoplasma gondii agents: synthesis, toxicity evaluation, and molecular docking study” (Medicinal Chemistry Research, 2018)

Experiments:
[1] = system: PTZ-induced clonic seizures; assay: PTZ seizure test; type: in vivo, mouse; conditions: mice, ip, 60 min before PTZ 100 mg/kg sc; for latency time to first clonus / number of seizure episodes: vs vehicle
Description: For in vivo tests that assessed anticonvulsant properties of the test compounds 3a–3j adult male Albino Swiss (CD-1) mice weighing between 18 and 22 g were used. The animals were housed in groups of ten mice per cage at room temperature of 22 ± 2 °C, under light/dark (12:12) cycle. The animals had free access to food and tap water before the experiments. The ambient temperature of the experimental room and humidity (50 ± 10%) were kept consistent throughout all the tests. For behavioral experiments the animals were selected randomly. Each experimental group consisted of 4–8 animals/dose. The experiments were performed between 9 AM and 2 PM. Immediately after the in vivo assay the animals were euthanized by cervical dislocation. All procedures were approved by the Local Ethics Committee of the Jagiellonian University in Krakow (34/2018, 1.02.2018)) and the treatment of animals was in full accordance with ethical standards laid down in respective Polish and EU regulations (Directive No. 86/609/EEC). For in vivo tests the compounds 3a–3j were prepared in 1% Tween 80 solution (POCH, Poland) and they were administered by the intraperitoneal route. Control mice received 1% Tween 80. Pentylenetetrazole (PTZ), pilocarpine hydrochloride and scopolamine butylbromide were provided by Sigma Aldrich (Poland). For the tests they were prepared in 0.9% saline (Polfa Kutno, Poland). PTZ and pilocarpine were administered 60 min after the test compound or vehicle. To assess anticonvulsant properties of the test compounds anticonvulsant screening was conducted. Four assays were used: PTZ, maximal electroshock seizure (MES), 6-Hz and pilocarpine tests. In these assays the dose of 100 mg/kg was chosen as a starting dose. If it turned out to be effective, a lower dose (30 mg/kg) was also tested. The test was performed according to a method previously described (Sałat et al. [2005]). Clonic convulsions were induced by the subcutaneous (sc) administration of PTZ at a dose of 100 mg/kg. After PTZ injection, each mouse was immediately placed in a transparent Plexiglas cage (30 × 20 × 15 cm) and was observed during the next 30 min for the occurrence of clonic seizures. Clonic seizures were defined as clonus of the whole body lasting more than 3 s, with an accompanying loss of righting reflex. Latency time to first clonus and the number of seizure episodes were noted and compared between vehicle-treated and drug-treated groups.

[2] = system: pilocarpine-induced status epilepticus; assay: Pilocarpine-induced seizures; type: in vivo, mouse; conditions: mice, 100 mg/kg ip, pilocarpine 400 mg/kg ip; post-hoc vs vehicle
Description: For in vivo tests that assessed anticonvulsant properties of the test compounds 3a–3j adult male Albino Swiss (CD-1) mice weighing between 18 and 22 g were used. The animals were housed in groups of ten mice per cage at room temperature of 22 ± 2 °C, under light/dark (12:12) cycle. The animals had free access to food and tap water before the experiments. The ambient temperature of the experimental room and humidity (50 ± 10%) were kept consistent throughout all the tests. For behavioral experiments the animals were selected randomly. Each experimental group consisted of 4–8 animals/dose. The experiments were performed between 9 AM and 2 PM. Immediately after the in vivo assay the animals were euthanized by cervical dislocation. All procedures were approved by the Local Ethics Committee of the Jagiellonian University in Krakow (34/2018, 1.02.2018)) and the treatment of animals was in full accordance with ethical standards laid down in respective Polish and EU regulations (Directive No. 86/609/EEC). For in vivo tests the compounds 3a–3j were prepared in 1% Tween 80 solution (POCH, Poland) and they were administered by the intraperitoneal route. Control mice received 1% Tween 80. Pentylenetetrazole (PTZ), pilocarpine hydrochloride and scopolamine butylbromide were provided by Sigma Aldrich (Poland). For the tests they were prepared in 0.9% saline (Polfa Kutno, Poland). PTZ and pilocarpine were administered 60 min after the test compound or vehicle. To assess anticonvulsant properties of the test compounds anticonvulsant screening was conducted. Four assays were used: PTZ, maximal electroshock seizure (MES), 6-Hz and pilocarpine tests. In these assays the dose of 100 mg/kg was chosen as a starting dose. If it turned out to be effective, a lower dose (30 mg/kg) was also tested. In this test the mice were pretreated with the investigated compound or vehicle and 60 min later they received pilocarpine (400 mg/kg, ip). To avoid cholinergic side-effects: peripheral toxicity and diarrhea, masticatory and stereotyped movements, animals treated with pilocarpine also received scopolamine butylbromide (1 mg/kg, ip) which was injected 45 min before pilocarpine. After the administration of the convulsant, the mice were observed during the next 60 min for behavioral changes. Latency time to the onset of status epilepticus was considered as the endpoint in this test (Wilhelm et al. [2010]).

Compound | anticonvulsant activity in PTZ model [1] | latency time to pilocarpine-induced status epilepticus [2] | latency time to first clonus [1] | number of seizure episodes [1]
FC(F)(F)c1ccc(-c2csc(N/N=C/C3CC3)n2)cc1 [Compound 3e, (E)-2-(2-(Cyclopropylmethylene)hydrazinyl)-4-(4-(trifluoromethyl)phenyl)thiazole] | not effective | did not show statistically significant anticonvulsant effects | – | –
[N-]=[N+]=Nc1ccc(-c2csc(N/N=C/C3CC3)n2)cc1 [Compound 3i, (E)-4-(4-Azidophenyl)-2-(2-(cyclopropylmethylene)hydrazinyl)thiazole] | – | did not show statistically significant anticonvulsant effects | significantly prolonged | reduced
COc1ccc(-c2csc(N/N=C/C3CC3)n2)cc1 [Compound 3f, (E)-2-(2-(Cyclopropylmethylene)hydrazinyl)-4-(4-methoxyphenyl)thiazole] | – | did not show statistically significant anticonvulsant effects | significantly prolonged | reduced
Clc1ccc(-c2csc(N/N=C/C3CC3)n2)cc1 [Compound 3c, (E)-4-(4-Chlorophenyl)-2-(2-(cyclopropylmethylene)hydrazinyl)thiazole] | not effective | did not show statistically significant anticonvulsant effects | – | –
